Measurements as given in PMC5218480 (PLoS ONE, 2017).

System: MV-4-11 cells
Assay: Gene expression microarray analysis (Affymetrix PrimeView) and GSEA
Assay type: cell-based, human
Parameters: RFU PODN (11730768_x_at) / Fold change /veh PODN (11730768_x_at) / RFU LINC00158 (11744669_a_at) / Fold change /veh LINC00158 (11744669_a_at) / RFU DUSP10 (11751237_a_at) / Fold change /veh DUSP10 (11751237_a_at) / RFU ID3 (11757404_x_at) / Fold change /veh ID3 (11757404_x_at) / RFU PLEKHG5 (11737974_s_at) / Fold change /veh PLEKHG5 (11737974_s_at) / RFU LRRC4B (11730491_at) / Fold change /veh LRRC4B (11730491_at) / RFU GIMAP4 (11747438_a_at) / Fold change /veh GIMAP4 (11747438_a_at) / RFU KRT8 (11758183_x_at) / Fold change /veh KRT8 (11758183_x_at) / RFU CNN1 (11734310_a_at) / Fold change /veh CNN1 (11734310_a_at) / RFU VPS37D (11726825_at) / Fold change /veh VPS37D (11726825_at) / RFU C10orf10 (11716522_x_at) / Fold change /veh C10orf10 (11716522_x_at) / RFU KIR2DL2 /// KIR2DL4 /// KIR2DL5A /// KIR2DL5B /// KIR2DS1 /// KIR2DS2 /// KIR2DS3 /// KIR2DS4 /// KIR3DL3 /// KIR3DL3 /// KIR3DS1 (11738374_at) / Fold change /veh KIR2DL2 /// KIR2DL4 /// KIR2DL5A /// KIR2DL5B /// KIR2DS1 /// KIR2DS2 /// KIR2DS3 /// KIR2DS4 /// KIR3DL3 /// KIR3DL3 /// KIR3DS1 (11738374_at) / RFU C1QL1 (11718748_at) / Fold change /veh C1QL1 (11718748_at) / RFU TMPRSS4 (11747572_a_at) / Fold change /veh TMPRSS4 (11747572_a_at) / RFU HAMP (11756126_x_at) / Fold change /veh HAMP (11756126_x_at) / RFU RNFT2 (11725882_a_at) / Fold change /veh RNFT2 (11725882_a_at) / RFU NR4A2 (11747474_a_at) / Fold change /veh NR4A2 (11747474_a_at) / RFU ABCC12 (11746883_a_at) / Fold change /veh ABCC12 (11746883_a_at) / RFU TMEM136 (11760407_x_at) / Fold change /veh TMEM136 (11760407_x_at) / RFU CLDN22 /// WWC2 (11732394_at) / Fold change /veh CLDN22 /// WWC2 (11732394_at) / RFU HLA-DPB1 (11760878_x_at) / Fold change /veh HLA-DPB1 (11760878_x_at) / RFU SPINT1 (11716480_a_at) / Fold change /veh SPINT1 (11716480_a_at) / RFU GAP43 (11754022_s_at) / Fold change /veh GAP43 (11754022_s_at) / RFU A4GNT (11735810_at) / Fold change /veh A4GNT (11735810_at) / RFU PRB3 (11715151_x_at) / Fold change /veh PRB3 (11715151_x_at) / RFU TUBB4B (11761932_at) / Fold change /veh TUBB4B (11761932_at) / RFU CAPN14 (11732068_a_at) / Fold change /veh CAPN14 (11732068_a_at) / RFU TMCC2 (11721928_a_at) / Fold change /veh TMCC2 (11721928_a_at) / RFU IRGQ (11745062_a_at) / Fold change /veh IRGQ (11745062_a_at) / RFU FAM174B (11720279_a_at) / Fold change /veh FAM174B (11720279_a_at) / RFU TMPRSS4 (11748680_a_at) / Fold change /veh TMPRSS4 (11748680_a_at) / RFU FAM212B (11763350_a_at) / Fold change /veh FAM212B (11763350_a_at) / RFU PLEKHG5 (11743358_a_at) / Fold change /veh PLEKHG5 (11743358_a_at) / RFU ZSCAN30 (11745921_a_at) / Fold change /veh ZSCAN30 (11745921_a_at) / RFU CMKLR1 (11741424_a_at) / Fold change /veh CMKLR1 (11741424_a_at) / RFU LOC101060620 /// MAPK8IP1 (11723275_at) / Fold change /veh LOC101060620 /// MAPK8IP1 (11723275_at) / RFU SPTSSB (11747773_x_at) / Fold change /veh SPTSSB (11747773_x_at) / RFU PRSS12 (11739890_at) / Fold change /veh PRSS12 (11739890_at) / RFU BIN1 (11741810_x_at) / Fold change /veh BIN1 (11741810_x_at) / RFU WNT11 (11732464_a_at) / Fold change /veh WNT11 (11732464_a_at) / RFU C10orf10 (11716521_a_at) / Fold change /veh C10orf10 (11716521_a_at) / RFU C5orf56 (11738089_at) / Fold change /veh C5orf56 (11738089_at) / RFU CYB561 (11721691_x_at) / Fold change /veh CYB561 (11721691_x_at) / RFU ANKRD19P (11752326_a_at) / Fold change /veh ANKRD19P (11752326_a_at) / RFU OR2T12 /// OR2T33 /// OR2T8 (11738714_s_at) / Fold change /veh OR2T12 /// OR2T33 /// OR2T8 (11738714_s_at) / RFU VCAN (11748164_a_at) / Fold change /veh VCAN (11748164_a_at) / RFU JSRP1 (11732532_at) / Fold change /veh JSRP1 (11732532_at) / RFU KRTAP10-11 (11738290_x_at) / Fold change /veh KRTAP10-11 (11738290_x_at) / RFU MYO3A (11730013_a_at) / Fold change /veh MYO3A (11730013_a_at) / RFU EBF3 (11725865_a_at) / Fold change /veh EBF3 (11725865_a_at) / RFU CAMK2N1 (11719241_x_at) / Fold change /veh CAMK2N1 (11719241_x_at) / RFU C5orf56 (11738088_a_at) / Fold change /veh C5orf56 (11738088_a_at) / RFU OLFML3 (11715873_a_at) / Fold change /veh OLFML3 (11715873_a_at) / RFU LOC100653217 /// NTM (11731650_a_at) / Fold change /veh LOC100653217 /// NTM (11731650_a_at) / RFU MAPK11 (11762145_a_at) / Fold change /veh MAPK11 (11762145_a_at) / RFU FIZ1 (11724087_x_at) / Fold change /veh FIZ1 (11724087_x_at) / RFU OASL (11726364_x_at) / Fold change /veh OASL (11726364_x_at) / RFU SOX15 (11748057_x_at) / Fold change /veh SOX15 (11748057_x_at) / RFU CD79A (11719716_a_at) / Fold change /veh CD79A (11719716_a_at) / RFU HIST1H1D (11736915_at) / Fold change /veh HIST1H1D (11736915_at) / RFU CASKIN2 (11723855_a_at) / Fold change /veh CASKIN2 (11723855_a_at) / RFU LOC730098 (11760151_x_at) / Fold change /veh LOC730098 (11760151_x_at) / RFU OR4N2 (11742367_at) / Fold change /veh OR4N2 (11742367_at) / RFU PRRT2 (11749266_a_at) / Fold change /veh PRRT2 (11749266_a_at) / RFU SNX32 (11753110_a_at) / Fold change /veh SNX32 (11753110_a_at) / RFU CDHR5 (11726645_a_at) / Fold change /veh CDHR5 (11726645_a_at) / RFU RCAN1 (11760418_a_at) / Fold change /veh RCAN1 (11760418_a_at) / RFU FAM167A (11723789_a_at) / Fold change /veh FAM167A (11723789_a_at) / RFU FAM26E (11764081_at) / Fold change /veh FAM26E (11764081_at) / RFU ISYNA1 (11749810_s_at) / Fold change /veh ISYNA1 (11749810_s_at) / RFU ACY1 (11761880_at) / Fold change /veh ACY1 (11761880_at) / RFU 11764098_at / Fold change /veh 11764098_at / RFU SAMD14 (11745864_x_at) / Fold change /veh SAMD14 (11745864_x_at) / RFU NPB (11741838_a_at) / Fold change /veh NPB (11741838_a_at) / RFU TMPRSS6 (11731388_a_at) / Fold change /veh TMPRSS6 (11731388_a_at) / RFU KRTAP10-2 (11738614_at) / Fold change /veh KRTAP10-2 (11738614_at) / RFU ARHGAP8 /// PRR5-ARHGAP8 (11727945_x_at) / Fold change /veh ARHGAP8 /// PRR5-ARHGAP8 (11727945_x_at) / RFU KRTAP5-7 /// NADSYN1 (11734609_at) / Fold change /veh KRTAP5-7 /// NADSYN1 (11734609_at) / RFU RASL12 (11751679_a_at) / Fold change /veh RASL12 (11751679_a_at) / RFU CDKN2B (11736163_a_at) / Fold change /veh CDKN2B (11736163_a_at) / RFU PRF1 (11729649_at) / Fold change /veh PRF1 (11729649_at) / RFU, ZNF638 /// ZNF638-IT1 / Fold change vs veh, ZNF638 /// ZNF638-IT1 / RFU, PANK3 / Fold change vs veh, PANK3 / RFU, SH3YL1 / Fold change vs veh, SH3YL1 / RFU, ZEB2 / Fold change vs veh, ZEB2 / RFU, NRIP1 / Fold change vs veh, NRIP1 / RFU, PTTG1IP / Fold change vs veh, PTTG1IP / RFU, CAPN2 / Fold change vs veh, CAPN2 / RFU, MED14 / Fold change vs veh, MED14 / RFU, SNORA58 / Fold change vs veh, SNORA58 / RFU, C1orf63 / Fold change vs veh, C1orf63 / RFU, LRRFIP1 / Fold change vs veh, LRRFIP1 / RFU, NDUFAF7 / Fold change vs veh, NDUFAF7 / RFU, SLC12A2 / Fold change vs veh, SLC12A2 / RFU, IBTK / Fold change vs veh, IBTK / RFU, ESF1 / Fold change vs veh, ESF1 / Fold change vs veh, TMEM50B / RFU, TAOK1 / Fold change vs veh, TAOK1 / RFU, ACBD3 / Fold change vs veh, ACBD3 / RFU, TMA16 / Fold change vs veh, TMA16 / RFU, RWDD3 / Fold change vs veh, RWDD3 / RFU, BCAT1 / Fold change vs veh, BCAT1 / RFU, EDEM3 / Fold change vs veh, EDEM3 / RFU, TMEM33 / Fold change vs veh, TMEM33 / RFU, WDR75 / Fold change vs veh, WDR75 / RFU, AHCTF1 / Fold change vs veh, AHCTF1 / RFU, TFRC / Fold change vs veh, TFRC / RFU, ZDHHC17 / Fold change vs veh, ZDHHC17 / RFU, NOM1 / Fold change vs veh, NOM1 / RFU, ARL8B / Fold change vs veh, ARL8B / RFU, ZBTB11 / Fold change vs veh, ZBTB11 / RFU, TAMM41 / Fold change vs veh, TAMM41 / RFU, KIAA1704 /// LOC100996395 / Fold change vs veh, KIAA1704 /// LOC100996395 / RFU, ING1 / Fold change vs veh, ING1 / RFU, TRMT61B / Fold change vs veh, TRMT61B / RFU, FUBP3 / Fold change vs veh, FUBP3 / RFU, TP53 / Fold change vs veh, TP53 / RFU, TNKS2 / Fold change vs veh, TNKS2 / RFU, ZFP14 / Fold change vs veh, ZFP14 / RFU, ACTR2 / Fold change vs veh, ACTR2 / RFU, PPP3R1 / Fold change vs veh, PPP3R1 / RFU, PIK3R1 / Fold change vs veh, PIK3R1 / RFU, HNRNPA1 / Fold change vs veh, HNRNPA1 / RFU, RNF170 / Fold change vs veh, RNF170 / RFU, ZNF28 / Fold change vs veh, ZNF28 / RFU, RNGTT / Fold change vs veh, RNGTT / RFU, OGT / Fold change vs veh, OGT / RFU, BRD1 / Fold change vs veh, BRD1 / RFU, MARS / Fold change vs veh, MARS / RFU, ZNF655 / Fold change vs veh, ZNF655 / RFU, FAHD1 / Fold change vs veh, FAHD1 / RFU, BDP1 / Fold change vs veh, BDP1 / RFU, LRRCC1 / Fold change vs veh, LRRCC1 / RFU, ARID1A / Fold change vs veh, ARID1A / RFU, ZNF146 / Fold change vs veh, ZNF146 / RFU, ZNF330 / Fold change vs veh, ZNF330 / RFU, GPN3 / Fold change vs veh, GPN3 / RFU, C9orf123 / Fold change vs veh, C9orf123 / RFU, N4BP2L2 / Fold change vs veh, N4BP2L2 / RFU, ARFIP1 / Fold change vs veh, ARFIP1 / RFU, FAM179B / Fold change vs veh, FAM179B / RFU, BCL10 / Fold change vs veh, BCL10 / RFU, UHRF1BP1L / Fold change vs veh, UHRF1BP1L / RFU, BET1 / Fold change vs veh, BET1 / RFU, CNOT2 / Fold change vs veh, CNOT2 / RFU, ZNF268 / Fold change vs veh, ZNF268 / Fold change vs veh, ZNF507 / RFU, DGCR2 / Fold change vs veh, DGCR2 / RFU, WDSUB1 / Fold change vs veh, WDSUB1 / Fold change vs veh, HSP90B1 /// MIR3652 / RFU, ADSS / Fold change vs veh, ADSS / RFU, GK / Fold change vs veh, GK / RFU, ZNF148 / Fold change vs veh, ZNF148 / RFU, TAF9 / Fold change vs veh, TAF9 / RFU, SLC1A5 / Fold change vs veh, SLC1A5 / RFU, SLMO2 / Fold change vs veh, SLMO2 / RFU, ABCC4 / Fold change vs veh, ABCC4 / RFU, LOC101060439 /// RAP1B / Fold change vs veh, LOC101060439 /// RAP1B / RFU, RFX7 / Fold change vs veh, RFX7 / RFU, GTPBP10 / Fold change vs veh, GTPBP10 / RFU, CNEP1R1 / Fold change vs veh, CNEP1R1 / RFU, BIVM-ERCC5 /// ERCC5 / Fold change vs veh, BIVM-ERCC5 /// ERCC5 / RFU, ILF3 / Fold change vs veh, ILF3 / RFU 11762660_at / Fold change /veh 11762660_at / RFU VCAN (11757783_s_at) / Fold change /veh VCAN (11757783_s_at) / RFU DDX43 (11728927_at) / Fold change /veh DDX43 (11728927_at) / RFU KRT8 (11758188_x_at) / Fold change /veh KRT8 (11758188_x_at) / RFU NKD1 (11759106_at) / Fold change /veh NKD1 (11759106_at) / RFU SRD5A1 (11742802_a_at) / Fold change /veh SRD5A1 (11742802_a_at) / RFU TPSAB1 /// TPSB2 (11721975_s_at) / Fold change /veh TPSAB1 /// TPSB2 (11721975_s_at) / RFU GSTM3 (11746129_a_at) / Fold change /veh GSTM3 (11746129_a_at) / RFU IL23R (11737362_x_at) / Fold change /veh IL23R (11737362_x_at) / RFU TMEM51 (11727254_a_at) / Fold change /veh TMEM51 (11727254_a_at) / RFU PIWIL2 (11732686_x_at) / Fold change /veh PIWIL2 (11732686_x_at) / RFU ORM1 (11744905_x_at) / Fold change /veh ORM1 (11744905_x_at) / RFU CCDC152 (11743942_at) / Fold change /veh CCDC152 (11743942_at) / RFU ECM1 (11717891_a_at) / Fold change /veh ECM1 (11717891_a_at) / RFU IL23R (11748794_a_at) / Fold change /veh IL23R (11748794_a_at) / RFU TNFAIP8L3 (11732012_x_at) / Fold change /veh TNFAIP8L3 (11732012_x_at) / RFU MBOAT4 (11741988_at) / Fold change /veh MBOAT4 (11741988_at) / RFU 11764193_at / Fold change /veh 11764193_at / RFU TMEM53 (11763286_at) / Fold change /veh TMEM53 (11763286_at) / RFU MAGEB2 (11727129_at) / Fold change /veh MAGEB2 (11727129_at) / RFU TMEM200A (11744735_a_at) / Fold change /veh TMEM200A (11744735_a_at) / RFU CCDC152 (11751479_a_at) / Fold change /veh CCDC152 (11751479_a_at) / RFU FAM211A (11726209_a_at) / Fold change /veh FAM211A (11726209_a_at) / RFU RGS16 (11746705_a_at) / Fold change /veh RGS16 (11746705_a_at) / RFU VCAN (11755009_s_at) / Fold change /veh VCAN (11755009_s_at) / RFU RHOB (11743442_s_at) / Fold change /veh RHOB (11743442_s_at) / RFU RGS16 (11720943_a_at) / Fold change /veh RGS16 (11720943_a_at) / RFU RGS16 (11720944_at) / Fold change /veh RGS16 (11720944_at) / RFU, VPS4B / Fold change vs veh, VPS4B / RFU, CREB1 / Fold change vs veh, CREB1 / RFU, DNAJC13 / Fold change vs veh, DNAJC13 / RFU, GNAQ / Fold change vs veh, GNAQ / RFU, CDK5R1 / Fold change vs veh, CDK5R1 / RFU, ZRANB3 / Fold change vs veh, ZRANB3 / RFU, CUL4A / Fold change vs veh, CUL4A / RFU, CCNY / Fold change vs veh, CCNY / RFU, UFL1 / Fold change vs veh, UFL1 / RFU, COG3 / Fold change vs veh, COG3 / RFU, DIAPH2 / Fold change vs veh, DIAPH2 / RFU, SKA2 / Fold change vs veh, SKA2 / RFU, AFF3 / Fold change vs veh, AFF3 / RFU, LMF1 / Fold change vs veh, LMF1 / RFU, IPO11 / Fold change vs veh, IPO11 / RFU, DFFB / Fold change vs veh, DFFB / RFU, FOXP1 / Fold change vs veh, FOXP1 / RFU, CARD8 / Fold change vs veh, CARD8 / RFU, STRN3 / Fold change vs veh, STRN3 / RFU, ADK / Fold change vs veh, ADK / RFU, RASSF2 / Fold change vs veh, RASSF2 / RFU, WIPF1 / Fold change vs veh, WIPF1 / RFU, LARP1B / Fold change vs veh, LARP1B / RFU, RASA1 / Fold change vs veh, RASA1 / RFU, RB1 / Fold change vs veh, RB1 / RFU, PPFIA1 / Fold change vs veh, PPFIA1 / RFU, MAT2A / Fold change vs veh, MAT2A / RFU, CCT5 / Fold change vs veh, CCT5 / RFU, WDR92 / Fold change vs veh, WDR92 / RFU, CUX1 / Fold change vs veh, CUX1 / RFU, TTC7A / Fold change vs veh, TTC7A / RFU, TMEM135 / Fold change vs veh, TMEM135 / RFU, DEPTOR / Fold change vs veh, DEPTOR / RFU, CPM / Fold change vs veh, CPM / RFU, DNAJB6 / Fold change vs veh, DNAJB6 / RFU, CACNA2D3 / Fold change vs veh, CACNA2D3 / RFU, DTX4 / Fold change vs veh, DTX4 / RFU, TFCP2 / Fold change vs veh, TFCP2 / RFU, GMCL1 /// GMCL1P1 / Fold change vs veh, GMCL1 /// GMCL1P1 / RFU, AEBP2 / Fold change vs veh, AEBP2 / RFU, SNHG1 /// SNORD22 /// SNORD25 /// SNORD26 /// SNORD27 /// SNORD28 /// SNORD29 /// SNORD31 / Fold change vs veh, SNHG1 /// SNORD22 /// SNORD25 /// SNORD26 /// SNORD27 /// SNORD28 /// SNORD29 /// SNORD31 / Fold change (Aza/veh), C12orf56 (ProbeSet 11735607_a_at) / Fold change (ACY-1035/veh), C12orf56 (ProbeSet 11735607_a_at) / Fold change (Aza/veh), FGFR1OP (ProbeSet 11751329_s_at) / Fold change (ACY-1035/veh), FGFR1OP (ProbeSet 11751329_s_at) / Fold change (Aza/veh), VPS36 (ProbeSet 11739960_a_at) / Fold change (ACY-1035/veh), VPS36 (ProbeSet 11739960_a_at) / RFU SYPL1 (11715823_x_at) / Fold change /veh SYPL1 (11715823_x_at) / RFU IGFBP7 (11715501_s_at) / Fold change /veh IGFBP7 (11715501_s_at) / RFU REEP3 (11722064_at) / Fold change /veh REEP3 (11722064_at) / RFU IGLL1 (11728026_x_at) / Fold change /veh IGLL1 (11728026_x_at): dose or concentration left out as unconfirmed
Conditions: MV-4-11 cells, 48 hours

Nc1ccc(-c2cccs2)cc1NC(=O)c1ccc2c(c1)cc(C1CC1)n2CCN1CCOCC1 [ACY-1035]
RFU VCAN (11748164_a_at): 5.33 RFU
